Source: PubChem BioAssay (NCI)
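Results reflect a 48-hour exposure of cells in 96-well plates to compound at five concentrations. Definition used: TGI = concentration required for complete inhibition of growth.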

Key:
Test in all cases: inhibition of tumour cell growth, NCI panel, 48 h
[1] = test system: 786-0 renal
[2] = test system: A498 renal
[3] = test system: A549 NSCLC
[4] = test system: ACHN renal
[5] = test system: BT-549 breast
[6] = test system: CAKI-1 renal
[7] = test system: CCRF-CEM leukemia
[8] = test system: COLO 205 colon
[9] = test system: EKVX NSCLC
[10] = test system: HCC-2998 colon
[11] = test system: HCT-116 colon
[12] = test system: HCT-15 colon
[13] = test system: HL-60(TB) leukemia
[14] = test system: HOP-62 NSCLC
[15] = test system: HOP-92 NSCLC
[16] = test system: HT29 colon
[17] = test system: IGROV1 ovarian
[18] = test system: K-562 leukemia
[19] = test system: KM12 colon
[20] = test system: LOX IMVI melanoma
[21] = test system: M14 melanoma
[22] = test system: MALME-3M melanoma
[23] = test system: MCF7 breast
[24] = test system: MDA-MB-435
[25] = test system: MDA-N
[26] = test system: MOLT-4 leukemia
[27] = test system: NCI-H226 lung
[28] = test system: NCI-H23 lung
[29] = test system: NCI-H522 lung
[30] = test system: NCI/ADR-RES ovarian
[31] = test system: OVCAR-3 ovarian
[32] = test system: OVCAR-4 ovarian
[33] = test system: OVCAR-5 ovarian
[34] = test system: OVCAR-8 ovarian
[35] = test system: PC-3 prostate
[36] = test system: RPMI-8226 leukemia
[37] = test system: SF-295 CNS
[38] = test system: SF-539 CNS
[39] = test system: SK-MEL-2 melanoma
[40] = test system: SK-MEL-28 melanoma
[41] = test system: SK-MEL-5 melanoma
[42] = test system: SK-OV-3 ovarian
[43] = test system: SN12C renal
[44] = test system: SNB-75 CNS
[45] = test system: SR leukemia
[46] = test system: SW-620 colon
[47] = test system: T-47D breast
[48] = test system: TK-10 renal
[49] = test system: U251 CNS
[50] = test system: UACC-257 melanoma
[51] = test system: UACC-62 melanoma
[52] = test system: UO-31 renal
[53] = test system: DU-145 prostate
[54] = test system: HS 578T breast
[55] = test system: MDA-MB-231 breast
[56] = test system: NCI-H460 lung
[57] = test system: RXF 393 renal
[58] = test system: SF-268 CNS
[59] = test system: SNB-19 CNS

For `CN(C)c1nncc2n[nH]nc12`, the TGI [1] was > 100 µM, the TGI [2] was > 100 µM and the TGI [3] was > 100 µM. For the same compound, the TGI [4] was > 100 µM, the TGI [5] was > 100 µM and the TGI [6] was > 100 µM. The TGI [7] was > 100 µM, the TGI [8] was > 100 µM and the TGI [9] was > 100 µM. The TGI [10] was > 100 µM, the TGI [11] was > 100 µM and the TGI [12] was > 100 µM. The TGI [13] was > 100 µM, the TGI [14] was > 100 µM and the TGI [15] was > 100 µM. For the same compound, the TGI [16] was > 100 µM, the TGI [17] was > 100 µM and the TGI [18] was > 100 µM. The TGI [19] was > 100 µM, the TGI [20] was > 100 µM and the TGI [21] was > 100 µM. The TGI [22] was > 100 µM, the TGI [23] was > 100 µM and the TGI [24] was > 100 µM. The TGI [25] was > 100 µM, the TGI [26] was > 100 µM and the TGI [27] was > 100 µM. For the same compound, the TGI [28] was > 100 µM, the TGI [29] was > 100 µM and the TGI [30] was > 100 µM. For the same compound, the TGI [31] was > 100 µM, the TGI [32] was > 100 µM and the TGI [33] was > 100 µM. The TGI [34] was > 100 µM, the TGI [35] was > 100 µM and the TGI [36] was > 100 µM. For the same compound, the TGI [37] was > 100 µM, the TGI [38] was > 100 µM and the TGI [39] was > 100 µM. For the same compound, the TGI [40] was > 100 µM, the TGI [41] was > 100 µM and the TGI [42] was > 100 µM. The TGI [43] was > 100 µM, the TGI [44] was > 100 µM and the TGI [45] was > 100 µM. For the same compound, the TGI [46] was > 100 µM, the TGI [47] was > 100 µM and the TGI [48] was > 100 µM. For the same compound, the TGI [49] was > 100 µM, the TGI [50] was > 100 µM and the TGI [51] was > 100 µM. The TGI [52] was > 100 µM.
In the case of `CCN(CCCl)c1cc(CN(C)C)cc(NC(=O)C23CCC(C(=O)Nc4cc(CN(C)C)cc(N(CC)CCCl)c4)(CC2)CC3)c1`, the TGI [1] is reported as 1 µM, the TGI [2] is reported as 20.2 µM and the TGI [3] is reported as 5.14 µM. It also gave a TGI [4] of 9.22 µM, a TGI [6] of 23.2 µM and a TGI [7] of 1.17 µM. The TGI [8] was 2.81 µM, the TGI [53] was 11.9 µM and the TGI [10] was 2.73 µM. The TGI [11] was 5.33 µM, the TGI [12] was 26.4 µM and the TGI [13] was > 100 µM. For the same compound, the TGI [14] was 2.76 µM, the TGI [15] was 5.06 µM and the TGI [54] was 2.53 µM. For the same compound, the TGI [16] was 1.95 µM, the TGI [17] was 3.28 µM and the TGI [18] was 4.73 µM. It also gave a TGI [19] of 3.17 µM, a TGI [20] of 1.57 µM and a TGI [21] of 14.8 µM. It also gave a TGI [22] of 3.21 µM, a TGI [23] of 2.01 µM and a TGI [55] of 26.6 µM. The TGI [24] was 3.08 µM, the TGI [25] was 2.38 µM and the TGI [26] was 0.503 µM. It also gave a TGI [27] of 4 µM, a TGI [28] of 4.71 µM and a TGI [56] of 2.17 µM. The TGI [29] was 1.47 µM, the TGI [30] was > 100 µM and the TGI [32] was 5.12 µM. The TGI [33] was 10.4 µM, the TGI [34] was 3.16 µM and the TGI [35] was 1.95 µM. For the same compound, the TGI [36] was > 100 µM, the TGI [57] was 3.18 µM and the TGI [58] was 16 µM. It also gave a TGI [37] of 11.9 µM, a TGI [38] of 2.15 µM and a TGI [39] of 4.35 µM. The TGI [40] was 3.55 µM, the TGI [41] was 3.33 µM and the TGI [42] was 4.24 µM. For the same compound, the TGI [43] was 2.39 µM, the TGI [59] was 3.3 µM and the TGI [44] was 8.33 µM. It also gave a TGI [45] of 24.2 µM, a TGI [46] of 1.65 µM and a TGI [47] of 19.2 µM. For the same compound, the TGI [48] was 21.2 µM, the TGI [49] was 11 µM and the TGI [50] was 15.5 µM. It also gave a TGI [51] of 4.18 µM and a TGI [52] of 30.9 µM.
